From patent US20070141067A1, “TARGETED CANCER THERAPY” (MAYO MEDICAL VENTURES, priority 2004, published 2007)

System: HeLa cells
Assay: siRNA pretreatment with or without low dose doxorubicin, HeLa cell survival (drug sensitization)
Format: cell-based
Conditions: 50 fold lower than the LD90, dose response experiment
Description: FIG. 6A is a graph illustrating percent cell survival following treatment with a gene-specific siRNA, with or without a low dose drug. Seventy-six test siRNAs (2 or 3 siRNAs per gene plus 6 control siRNAs), targeting 29 novel candidate genes, were transfected into HeLa cells.
FIG. 6B is an enlarged section of the graph in FIG. 6A.
FIG. 6C is a graph of the same data of FIG. 6A plotted as a percentage increase in sensitivity relative to the untreated sample.
An analysis was conducted by a similar method as described in FIG. 4, with two main differences. First, a different set of siRNAs were used. The siRNAs targeted 29 novel candidate genes that were previously identified by cDNA microarray and CGH analysis to be overexpressed and amplified in 14 breast cancer cell lines (Hyman et al., Cancer Res. 62:6240-5, 2002). There were 76 test siRNAs (2 or 3 siRNA per gene plus 6 control siRNAs). The second difference in this study was that the number of experiments was doubled to include a low dose doxorubicin (“Dox”) treatment. Four replicates of the no-drug control, and four replicates of the low dose drug were prepared for a total of 8 wells treated with each siRNA. The HeLa cells were transfected with siRNA as described above, and the cells were allowed to incubate for 24 hours to achieve silencing of the targeted genes. […]

For `COc1cccc2c1C(=O)c1c(O)c3c(c(O)c1C2=O)C[C@@](O)(C(=O)CO)C[C@@H]3O[C@H]1C[C@H](N)[C@H](O)[C@H](C)O1` [Dox, doxorubicin], the “effect of low dose Dox on HeLa cell survival” value was “no effect”.
